Test results from patent US12628858B2, “Therapy for colorectal and small intestine cancers” (Cornell University, priority 2019, dated 2026).

System: Tumors from APC-/- mice
Experiment: 13C isotopic tracing in APC-/- tumors ex vivo (LC-MS/MS)
Type: cell-based, mouse
Settings: 10 min ex vivo

Structure (SMILES) | F1P 13C-labeled at all six positions (M+6), percentage of labeling [%] | percentage of fully labeled lactate [%]
O=[13C]([13CH2]O)[13C@@H](O)[13C@H](O)[13C@H](O)[13CH2]O [^13C-fructose, D-[U-^13C6]-Fructose] | 47.1 | 
O=[13CH][13C@H](O)[13C@@H](O)[13C@H](O)[13C@H](O)[13CH2]O [^13C-glucose, D-[U-^13C6]-Glucose] |  | 30.2
